# Reference: PubChem BioAssay (NCI)
# Several values for one entry are separate records, joined by “and”; a condition that tells them apart may be missing. Identical values can stand only once.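 Five compound concentrations were applied to cells in 96-well plates for 48 hours; endpoints were derived by simple linear interpolation of the resulting dose-response curve. The concentration for 50% growth inhibition is given as GI50. TGI is the concentration that stops growth completely.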
# How the values were obtained:
# Assay in all cases: DTP human tumour cell line panel, 48 h
# NCI-H522 lung = tested on: NCI-H522 lung
# K-562 leukemia = tested on: K-562 leukemia
# OVCAR-4 ovarian = tested on: OVCAR-4 ovarian
# UO-31 renal = tested on: UO-31 renal
# HOP-62 NSCLC = tested on: HOP-62 NSCLC
# SF-268 CNS = tested on: SF-268 CNS
# SNB-19 CNS = tested on: SNB-19 CNS
# U251 CNS = tested on: U251 CNS
# SK-OV-3 ovarian = tested on: SK-OV-3 ovarian
# PC-3 prostate = tested on: PC-3 prostate
SMILES,TGI (NCI-H522 lung),TGI (K-562 leukemia) [µM],TGI (OVCAR-4 ovarian),TGI (UO-31 renal),TGI (HOP-62 NSCLC),TGI (SF-268 CNS) [µM],TGI (SNB-19 CNS) [µM],TGI (U251 CNS) [µM],TGI (SK-OV-3 ovarian) [µM],TGI (PC-3 prostate) [µM],GI50 (NCI-H522 lung),GI50 (PC-3 prostate),GI50 (OVCAR-4 ovarian) [µM],GI50 (HOP-62 NSCLC),GI50 (SF-268 CNS) [µM],GI50 (SNB-19 CNS),GI50 (K-562 leukemia) [µM],GI50 (UO-31 renal) [µM],GI50 (SK-OV-3 ovarian)
CCCCCCCCCCCCCCCCCC(=O)OCC1OC(OC)C(NC(=O)N(CCCl)N=O)C(O)C1O (centres undefined),38.3 µM,> 100,76.1 µM,56.8 µM,> 100 µM,26.7,> 100,–,–,–,–,–,–,–,–,–,–,–,–
COc1cccc(NC(=O)CC(=O)NN2C(=O)/C(=C/c3ccc(N(CCC#N)CCC#N)cc3)N=C2c2cc([N+](=O)[O-])ccc2Cl)c1,> 100 µM,> 100,> 100 µM,> 100 µM,> 100 µM,> 100,> 100,> 100,> 100,–,–,–,–,–,–,–,–,–,–
O=C1CS(=O)(=O)C(c2cccc(Oc3ccccc3)c2)N1C1CC1 (centres undefined),> 100 µM,> 100,64.2 µM,> 100 µM,–,> 100,> 100,> 100,67.7,66.2,–,–,–,–,–,–,–,–,–
O=S(=O)(O)c1ccc2c(N=Nc3ccccc3)c(O)ccc2c1,> 100 µM,> 100,> 100 µM,> 100 µM,> 100 µM,> 100,> 100,> 100,> 100,> 100,–,–,–,–,–,–,–,–,–
C/C(=C\C(=N\NC(=N)N)c1ccccc1)c1ccccc1,1.76 µM,3.88,3.16 µM,–,0.7 µM,2.3,3.49,2.04,15.7,3.21,–,–,–,–,–,–,–,–,–
Cn1c(=O)ccc2c(=O)c3ccccc3oc21,> 100 µM,> 100,> 100 µM,16.8 µM,> 100 µM,> 100,> 100,> 100,> 100,> 100,–,–,–,–,–,–,–,–,–
Cc1cc(=O)n2c3c(c4c(cc13)c(CN(C)C)cc(=O)n4C)OC2,28.4 µM,> 100,> 77.9 µM,> 89.8 µM,> 100 µM,55.7,> 74.6,> 100,> 94.7,> 59.2,–,–,–,–,–,–,–,–,–
C=C1CC2C3C=C(C)C4=CC(=O)CC[C@]4(C)C3CC[C@]2(C)[C@@]1(OC(C)=O)C(C)=O (some centres undefined),> 100 µM,–,> 100 µM,–,> 100 µM,> 100,> 100,–,–,> 100,4.21 µM,2.55 µM,2.91,7.76 µM,5.46,> 100 µM,–,–,–
COP(=O)(OC)[C@H](O)[C@H]1C[C@@H]1c1ccccc1,> 100 µM,> 100,> 100 µM,> 100 µM,> 100 µM,> 100,> 100,> 100,> 100,> 100,–,–,–,–,–,–,–,–,–
CCCC[C@H]1C(=O)O[C@H](C)[C@H](NC(=O)c2cccc(NC=O)c2OC)C(=O)O[C@@H](C)[C@@H]1OC(=O)CC(C)C (tested in a mixture with another compound),21 µM,58,21.1 µM,41.4 µM,44.5 µM,38.5,22.3,18.9,30.1,32.6,–,–,–,–,–,–,–,–,–
O=CN1CCC23CC(O)CCC2C1Cc1cc(Oc2nnnn2-c2ccccc2)cc(O)c13 (centres undefined),> 100 µM,> 100,> 100 µM,> 100 µM,> 100 µM,> 100,> 100,> 100,> 100,> 100,–,–,–,–,–,–,–,–,–
CN1NC(c2ccccc2)=C(C#N)C(=O)CC1c1ccc(F)cc1 (centres undefined),> 100 µM,–,> 100 µM,–,–,> 100,> 100,> 100,> 100,–,–,–,–,–,–,–,–,–,–
O=c1[nH]c2cc([N+](=O)[O-])c(N/N=C/c3ccc(Cl)cc3Cl)c([N+](=O)[O-])c2[nH]1,94 µM,> 100,94.6 µM,> 100 µM,> 100 µM,> 100,> 100,> 100,77.5,> 100,–,–,–,–,–,–,–,–,–
COc1ccc(N=Nc2c(N)nn(C)c2N)cc1,> 100 µM,> 100,> 100 µM,> 100 µM,> 100 µM,> 100,> 100,> 100,> 100,–,–,–,–,–,–,–,–,–,–
CCOC(=O)C12CC(C)=C(C)CC1CCCc1ccccc12 (centres undefined),39.5 µM,78.2,> 100 µM,> 100 µM,> 100 µM,> 100,83,39.6,> 100,68.1,–,–,–,–,–,–,–,–,–
O=c1[nH]c(=O)n(CCOCP(=O)(O)O)nc1Br,> 100 µM,–,–,> 100 µM,> 100 µM,> 100,> 100,> 100,–,> 100,–,–,–,–,–,–,–,–,–
Cn1cc(-c2nnc(-c3ccc(Cl)cc3)[nH]c2=O)c2ccccc21,6.16 µM,> 100,> 100 µM,> 47 µM,> 75.8 µM,> 100,> 54.7,> 37.5,> 69.8,> 78.7,–,–,–,–,–,–,–,–,–
C[C@H]1CCC/C=C/[C@@H]2C[C@H](O)C[C@H]2[C@H](O)/C=C/C(=O)O1,0.208 µM and 0.213 µM and 0.354 µM,–,5.62 µM and > 49.1 µM,0.0655 µM and 0.492 µM,9.24 µM and 4.21 µM,> 63.3,> 100,> 100,–,–,0.044 µM and 0.0952 µM and 0.115 µM,< 0.0202 µM and 0.0475 µM and 0.0478 µM,0.0312,0.0216 µM and 0.0722 µM and 0.0915 µM,< 0.0103,0.0308 µM and 0.134 µM and 0.215 µM,0.236,0.0301,0.0361 µM and 0.0334 µM
